# According to PubChem BioAssay AID1963970 (Molecular Pharmacology Branch, DTP, NCI, 2024):
# Test system: 931267-113-T-J1-PDC multicell spheroid viability
# Test: Anticancer human tumor 931267-113-T-J1-PDC patient-derived colon adenocarcinoma cell line growth inhibition [PI3K]
# Settings: for IC50: curve of first compound; for viability, T/C: stronger effect = lower value
# Procedure, shortened: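 Tumor cells were combined with HUVEC and MSCs into spheroids, then dosed with PI3K-inhibitor combinations over half-log ranges capped near clinical Cmax or 10 microM.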
# [1] = second compound 0.0316 µM, first compound 0.0316 µM
# [2] = second compound 0.0316 µM, first compound 0.1 µM
# [3] = second compound 0.0316 µM, first compound 0.316 µM
# [4] = second compound 0.0316 µM, first compound 1 µM
# [5] = second compound 0.0316 µM, first compound 3.16 µM
# [6] = second compound 0.0316 µM, first compound 10 µM
# [7] = second compound 0.1 µM, first compound 0.0316 µM
# [8] = second compound 0.1 µM, first compound 0.1 µM
# [9] = second compound 0.1 µM, first compound 0.316 µM
# [10] = second compound 0.1 µM, first compound 1 µM
# [11] = second compound 0.1 µM, first compound 3.16 µM
# [12] = second compound 0.1 µM, first compound 10 µM
# [13] = second compound 0.316 µM, first compound 0.0316 µM
# [14] = second compound 0.316 µM, first compound 0.1 µM
# [15] = second compound 0.316 µM, first compound 0.316 µM
# [16] = second compound 0.316 µM, first compound 1 µM
# [17] = second compound 0.316 µM, first compound 3.16 µM
# [18] = second compound 0.316 µM, first compound 10 µM
# [19] = second compound 1 µM, first compound 0.0316 µM
# [20] = second compound 1 µM, first compound 0.1 µM
# [21] = second compound 1 µM, first compound 0.316 µM
# [22] = second compound 1 µM, first compound 1 µM
# [23] = second compound 1 µM, first compound 3.16 µM
# [24] = second compound 1 µM, first compound 10 µM
# [25] = second compound 3.16 µM, first compound 0.0316 µM
# [26] = second compound 3.16 µM, first compound 0.1 µM
# [27] = second compound 3.16 µM, first compound 0.316 µM
# [28] = second compound 3.16 µM, first compound 1 µM
# [29] = second compound 3.16 µM, first compound 3.16 µM
# [30] = second compound 3.16 µM, first compound 10 µM
# [31] = second compound 10 µM, first compound 0.0316 µM
# [32] = second compound 10 µM, first compound 0.1 µM
# [33] = second compound 10 µM, first compound 0.316 µM
# [34] = second compound 10 µM, first compound 1 µM
# [35] = second compound 10 µM, first compound 3.16 µM
# [36] = second compound 10 µM, first compound 10 µM
# 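Note: viability read 7 days after compound addition.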
structure (smiles),measurement,setting,value
CC(C)NCC(C(=O)N1CCN(c2ncnc3c2C(C)CC3O)CC1)c1ccc(Cl)cc1 (stereo unspecified) + Cc1nc(NC(=O)N2CCCC2C(N)=O)sc1-c1ccnc(C(C)(C)C(F)(F)F)c1,IC50,second compound 0.0316 µM,> 10 µM
same,IC50,second compound 0.1 µM,> 10 µM
same,IC50,second compound 0.316 µM,> 10 µM
same,IC50,second compound 1 µM,> 10 µM
same,IC50,second compound 3.16 µM,> 10 µM
same,IC50,second compound 10 µM,> 10 µM
same,"viability, T/C",[1],103%
same,"viability, T/C",[2],103%
same,"viability, T/C",[3],90.9%
same,"viability, T/C",[4],95.2%
same,"viability, T/C",[5],97.6%
same,"viability, T/C",[6],73.5%
same,"viability, T/C",[7],97.8%
same,"viability, T/C",[8],85.5%
same,"viability, T/C",[9],92.6%
same,"viability, T/C",[10],86.7%
same,"viability, T/C",[11],83.5%
same,"viability, T/C",[12],71.7%
same,"viability, T/C",[13],97.9%
same,"viability, T/C",[14],89.6%
same,"viability, T/C",[15],88.7%
same,"viability, T/C",[16],84%
same,"viability, T/C",[17],80.4%
same,"viability, T/C",[18],68.6%
same,"viability, T/C",[19],82.2%
same,"viability, T/C",[20],80.4%
same,"viability, T/C",[21],89.3%
same,"viability, T/C",[22],88.8%
same,"viability, T/C",[23],79.9%
same,"viability, T/C",[24],67.7%
same,"viability, T/C",[25],73.2%
same,"viability, T/C",[26],81.1%
same,"viability, T/C",[27],67.7%
same,"viability, T/C",[28],65%
same,"viability, T/C",[29],70%
same,"viability, T/C",[30],61%
same,"viability, T/C",[31],60.4%
same,"viability, T/C",[32],52.4%
same,"viability, T/C",[33],59%
same,"viability, T/C",[34],57.4%
same,"viability, T/C",[35],62.8%
same,"viability, T/C",[36],51.4%
C[C@@H](NC(=O)c1ncnc(N)c1Cl)c1ncc(C(=O)Nc2cc(C(F)(F)F)c(Cl)cn2)s1 + Cc1nc(NC(=O)N2CCCC2C(N)=O)sc1-c1ccnc(C(C)(C)C(F)(F)F)c1,IC50,second compound 0.0316 µM,> 10 µM
same,IC50,second compound 0.1 µM,> 10 µM
same,IC50,second compound 0.316 µM,> 10 µM
same,IC50,second compound 1 µM,9.87 µM
same,IC50,second compound 3.16 µM,5.35 µM
same,IC50,second compound 10 µM,1.39 µM
same,"viability, T/C",[1],110%
same,"viability, T/C",[2],106%
same,"viability, T/C",[3],110%
same,"viability, T/C",[4],116%
same,"viability, T/C",[5],97.5%
same,"viability, T/C",[6],82.8%
same,"viability, T/C",[7],103%
same,"viability, T/C",[8],107%
same,"viability, T/C",[9],113%
same,"viability, T/C",[10],111%
same,"viability, T/C",[11],88.7%
same,"viability, T/C",[12],72.5%
same,"viability, T/C",[13],106%
same,"viability, T/C",[14],96.4%
same,"viability, T/C",[15],106%
same,"viability, T/C",[16],95.7%
same,"viability, T/C",[17],74.6%
same,"viability, T/C",[18],57.5%
same,"viability, T/C",[19],93.7%
same,"viability, T/C",[20],93.2%
same,"viability, T/C",[21],99.2%
same,"viability, T/C",[22],81.1%
same,"viability, T/C",[23],71.2%
same,"viability, T/C",[24],49.5%
same,"viability, T/C",[25],83.6%
same,"viability, T/C",[26],91.8%
same,"viability, T/C",[27],83.3%
same,"viability, T/C",[28],79.8%
same,"viability, T/C",[29],62.6%
same,"viability, T/C",[30],35%
same,"viability, T/C",[31],72.2%
same,"viability, T/C",[32],63.3%
same,"viability, T/C",[33],63.8%
same,"viability, T/C",[34],52%
same,"viability, T/C",[35],41.9%
same,"viability, T/C",[36],16.9%
Cn1ncnc1[C@H]1c2n[nH]c(=O)c3cc(F)cc(c23)N[C@@H]1c1ccc(F)cc1 + Cc1nc(NC(=O)N2CCCC2C(N)=O)sc1-c1ccnc(C(C)(C)C(F)(F)F)c1,IC50,second compound 0.0316 µM,> 0.1 µM
same,IC50,second compound 0.1 µM,> 0.1 µM
same,IC50,second compound 0.316 µM,> 0.1 µM
same,IC50,second compound 1 µM,> 0.1 µM
same,IC50,second compound 3.16 µM,> 0.1 µM
same,IC50,second compound 10 µM,> 0.1 µM
same,"viability, T/C","second compound 0.0316 µM, first compound 0.000316 µM",107%
same,"viability, T/C","second compound 0.0316 µM, first compound 0.001 µM",98.2%
same,"viability, T/C","second compound 0.0316 µM, first compound 0.00316 µM",84.2%
same,"viability, T/C","second compound 0.0316 µM, first compound 0.01 µM",94.1%
same,"viability, T/C",[1],91%
same,"viability, T/C",[2],97.5%
same,"viability, T/C","second compound 0.1 µM, first compound 0.000316 µM",113%
same,"viability, T/C","second compound 0.1 µM, first compound 0.001 µM",94.8%
same,"viability, T/C","second compound 0.1 µM, first compound 0.00316 µM",107%
same,"viability, T/C","second compound 0.1 µM, first compound 0.01 µM",98.8%
same,"viability, T/C",[7],90.2%
same,"viability, T/C",[8],75.1%
same,"viability, T/C","second compound 0.316 µM, first compound 0.000316 µM",93.9%
same,"viability, T/C","second compound 0.316 µM, first compound 0.001 µM",89.5%
same,"viability, T/C","second compound 0.316 µM, first compound 0.00316 µM",89.5%
same,"viability, T/C","second compound 0.316 µM, first compound 0.01 µM",95%
same,"viability, T/C",[13],82%
same,"viability, T/C",[14],89.8%
same,"viability, T/C","second compound 1 µM, first compound 0.000316 µM",74.5%
same,"viability, T/C","second compound 1 µM, first compound 0.001 µM",73.7%
same,"viability, T/C","second compound 1 µM, first compound 0.00316 µM",86.3%
same,"viability, T/C","second compound 1 µM, first compound 0.01 µM",78.5%
same,"viability, T/C",[19],79.7%
same,"viability, T/C",[20],72.1%
same,"viability, T/C","second compound 3.16 µM, first compound 0.000316 µM",78.9%
same,"viability, T/C","second compound 3.16 µM, first compound 0.001 µM",68.6%
same,"viability, T/C","second compound 3.16 µM, first compound 0.00316 µM",61.7%
same,"viability, T/C","second compound 3.16 µM, first compound 0.01 µM",63.8%
same,"viability, T/C",[25],70.7%
same,"viability, T/C",[26],64.6%
same,"viability, T/C","second compound 10 µM, first compound 0.000316 µM",57.7%
same,"viability, T/C","second compound 10 µM, first compound 0.001 µM",55.2%
same,"viability, T/C","second compound 10 µM, first compound 0.00316 µM",54.2%
same,"viability, T/C","second compound 10 µM, first compound 0.01 µM",51.8%
same,"viability, T/C",[31],59.2%
same,"viability, T/C",[32],52.8%
